Numbered stars: 1 amine (or outer) side, 2 acyl side, 3 side chain; on linkers, the order of the positions; unused ones are H or OH. Bridge positions count the residues as written; N and C are the ends. Square brackets hold non-standard residues; d marks the D form. Peptide text beside a SMILES is read from it. * marks the point of attachment. X4 = O=C1CN2CCN3CCN(CC(=O)N4CCN(Cc5cc(C[*:1])cc(C[*:2])c5)CC4)CCN(CC2)CC(=O)[O][In]([O]1)[O]C(=O)C3; X12 = NCCNCC(CNCCN)C(=O)NCCCOCCOCCOCCCN*; mXylylene = c1cc(C[*:1])cc(C[*:2])c1; Pentanesulfonyl = CCCCCS(=O)(=O)*; Suc = O=C(CCC(=O)[*:2])[*:1]; Nle = CCCC[C@H](N)C(=O)O
Columns and labels:
[1] = molecular target: T1, FAP-expressing human WI-38 fibroblasts (Homo sapiens, UniProt Q12884); assay: Competitive FACS binding assay; details: pIC50 Category (FACS), competition with 3 nM Cy5-labeled compound, 4° C., 1 hour
T1 construct: FAP-expressing human WI-38 fibroblasts (ECACC) were cultured in EMEM; host or cells: WI-38 human fibroblasts
T1 sequence (Q12884 1-760): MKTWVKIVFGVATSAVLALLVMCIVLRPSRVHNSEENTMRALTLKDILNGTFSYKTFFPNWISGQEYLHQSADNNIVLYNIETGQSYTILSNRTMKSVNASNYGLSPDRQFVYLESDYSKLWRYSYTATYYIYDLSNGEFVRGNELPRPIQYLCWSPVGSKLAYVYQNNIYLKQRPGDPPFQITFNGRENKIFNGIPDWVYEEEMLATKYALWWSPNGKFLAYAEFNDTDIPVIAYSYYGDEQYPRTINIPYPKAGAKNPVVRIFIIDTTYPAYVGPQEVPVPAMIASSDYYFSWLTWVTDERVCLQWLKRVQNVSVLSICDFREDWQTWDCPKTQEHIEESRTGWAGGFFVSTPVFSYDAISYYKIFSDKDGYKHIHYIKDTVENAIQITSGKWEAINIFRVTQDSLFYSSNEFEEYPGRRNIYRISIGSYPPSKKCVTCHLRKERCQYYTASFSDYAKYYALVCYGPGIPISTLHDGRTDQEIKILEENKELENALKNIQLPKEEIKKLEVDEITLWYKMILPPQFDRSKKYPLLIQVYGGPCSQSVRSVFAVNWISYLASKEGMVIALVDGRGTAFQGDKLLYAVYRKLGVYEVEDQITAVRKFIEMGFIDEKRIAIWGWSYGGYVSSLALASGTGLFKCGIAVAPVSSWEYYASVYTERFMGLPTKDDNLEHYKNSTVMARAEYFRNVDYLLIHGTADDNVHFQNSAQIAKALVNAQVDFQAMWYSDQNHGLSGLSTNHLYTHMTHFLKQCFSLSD
Protocol: Cells were analyzed in an Attune NxT flow cytometer. […]

[2] = molecular target: T2, Human recombinant FAP (Homo sapiens, UniProt Q12884); assay: Surface plasmon resonance (Biacore) assay; type: binding
T2 sequence (Q12884 1-760): T1 sequence (Q12884 1-760)

[3] = molecular target: T2, Human recombinant FAP; assay: FRET-based FAP protease activity assay; type: biochemical; set-up: purchased R&D systems 3715-SE; details: pIC50 Category (Activity), FRET substrate, 37° C.

CCCCCS(=O)(=O)N[C@H]1CSCc2cc(cc(CN3CCN(C(=O)CN4CCN5CCN6CCN(CC4)CC(=O)[O][In]([O]C(=O)C6)[O]C(=O)C5)CC3)c2)CSC[C@@H](C(=O)N[C@@H](CC(=O)O)C(N)=O)NC(=O)[C@H](Cc2ccccc2)NC(=O)[C@H](CCC(N)=O)NC(=O)[C@H]([C@@H](C)O)NC(=O)[C@@H]2CCCN2C(=O)[C@@H]2CCCN2C1=O [3BP-3717, Pentyl-SO2-[Cys(tMeBn(InDOTA-PP))-Pro-Pro-Thr-Gln-Phe-Cys]-Asp-NH2] (Pentanesulfonyl-CPPTQFCD-NH2; linker 1-7 via X4)
< 10 nM: IC50 [1] | Kd [2] | IC50 [3]

CCCCCC(=O)N[C@H]1CSCc2cc(CSCCNC(=O)CN3CCN(CC(=O)O)CCN(CC(=O)O)CCN(CC(=O)O)CC3)cc(c2)CSC[C@@H](C(=O)NCCC(N)=O)NC(=O)[C@H](Cc2ccccc2)NC(=O)[C@H](CCC(N)=O)NC(=O)[C@H]([C@@H](C)O)NC(=O)[C@@H]2CCCN2C(=O)[C@@H]2CCCN2C1=O [3BP-3736, Hex-[Cys(tMeBn(DOTA-AET))-Pro-Pro-Thr-Gln-Phe-Cys]-Bal-NH2]
< 10 nM: IC50 [1] | Kd [2] | IC50 [3]

CCCCCC(=O)N[C@H]1CSCc2cc(CSCCNC(=O)CN3CCN(CC(=O)O)CCN(CC(=O)O)CCN(CC(=O)O)CC3)cc(c2)CSC[C@@H](C(=O)N(C)CC(N)=O)NC(=O)[C@H](Cc2ccccc2)NC(=O)[C@H](CCC(N)=O)NC(=O)[C@H]([C@@H](C)O)NC(=O)[C@@H]2CCCN2C(=O)[C@@H]2CCCN2C1=O [3BP-3737, Hex-[Cys(tMeBn(DOTA-AET))-Pro-Pro-Thr-Gln-Phe-Cys]-Nmg-NH2]
< 10 nM: IC50 [1] | Kd [2] | IC50 [3]

CCCCCC(=O)N[C@H]1CSCc2cc(CSCCNC(=O)CN3CCN4CCN5CCN(CC3)CC(=O)[O][Ga]([O]C(=O)C4)[O]C(=O)C5)cc(c2)CSC[C@@H](C(=O)O)NC(=O)[C@H](Cc2ccccc2)NC(=O)[C@H](CCC(N)=O)NC(=O)[C@H]([C@@H](C)O)NC(=O)[C@@H]2CCCN2C(=O)[C@@H]2CCCN2C1 [3BP-3949, Gallium-Complex of Hex-[Cys(tMeBn(DOTA-AET))-Pro-Pro-Thr-Gln-Phe-Cys]-OH]
< 10 nM: IC50 [1] | Kd [2] | IC50 [3]

CCCCCC(=O)N[C@H]1CSCc2cc(CSCCNC(=O)C(CNCCN)CNCCN)cc(c2)CSC[C@@H](C(=O)O)NC(=O)[C@H](Cc2ccccc2)NC(=O)[C@H](CCC(N)=O)NC(=O)[C@H]([C@@H](C)O)NC(=O)[C@@H]2CCCN2C(=O)[C@@H]2CCCN2C1=O [3BP-4063, Hex-[Cys-(tMeBn(N4Ac-AET))-Pro-Pro-Thr-Gln-Phe-Cys]-OH]
< 10 nM: IC50 [1] | Kd [2] | IC50 [3]

CCCCCC(=O)N[C@H]1CSCc2cc(CSCCNC(=O)COCCOCCNC(=O)C(CNCCN)CNCCN)cc(c2)CSC[C@@H](C(=O)O)NC(=O)[C@H](Cc2ccccc2)NC(=O)[C@H](CCC(N)=O)NC(=O)[C@H]([C@@H](C)O)NC(=O)[C@@H]2CCCN2C(=O)[C@@H]2CCCN2C1=O [3BP-4088, Hex-[Cys-(tMeBn(N4Ac-O2Oc-AET))-Pro-Pro-Thr-Gln-Phe-Cys]-OH]
< 10 nM: IC50 [1] | Kd [2] | IC50 [3]

CCCC[C@H](NC(=O)CCC(=O)NCCCOCCOCCOCCCNC(=O)C(CNCCN)CNCCN)C(=O)N[C@H]1CSCc2cccc(c2)CSC[C@@H](C(=O)O)NC(=O)[C@H](Cc2ccccc2)NC(=O)[C@H](CCC(=O)O)NC(=O)[C@H]([C@@H](C)O)NC(=O)[C@@H]2CCCN2C(=O)[C@@H]2CCCN2C1=O [3BP-4161, N4Ac-Ttds-Nle-[Cys-(3MeBn)-Pro-Pro-Thr-Glu-Phe-Cys]-OH] ({X12-Suc}-[Nle]CPPTEFC-OH; linker 2-8 via mXylylene)
< 10 nM: IC50 [1] | Kd [2] | IC50 [3]

— patent US20220315554A1, “COMPOUNDS COMPRISING A […] LIGAND AND USE THEREOF” (priority 2019, published 2022)
